According to patent US20240360142A1, “Multitargeting Agents For The Potential Treatment of Dementia With Lewy Bodies, Parkinson's Disease, and Alzheimer Disease With Lewy Bodies” (Duquesne University of The Holy Spirit, priority 2023, published 2024):
Values after ≈ are worked out from the molar mass of the structure shown. Values joined by “and” are separate entries in the source; they are usually repeats but may differ in a detail not shown here. Identical values can stand only once. “Also recorded” adds a separate entry of the source. Like-named read-outs stand apart in the source and are kept apart here.

What was measured:
[1] = Protein Binding, Mouse Plasma; type: in vitro ADME; conditions: read-out: Protein Binding % Bound (converted)
CSNK2A2 (CK2 alpha 2) = CSNK2A2 (CK2 alpha 2) (Homo sapiens, UniProt P19784); assay: Kinase inhibition, CSNK2A2; type: biochemical; conditions: ATP Km app 46 μM
Text: (§1) Total inhibition of these kinases would be detrimental to neuronal viability.

DYRK1A = DYRK1A (Homo sapiens, UniProt Q13627); assay: Kinase inhibition, DYRK1A; type: biochemical; conditions: ATP Km app 99.7 μM
Text: as §1

Permeability, MDC-MDR1 = type: in vitro ADME; conditions: MDCK-MDR1
GSK3β = GSK3β (Homo sapiens, UniProt P49841); assay: Kinase inhibition, GSK3β; type: biochemical
Text: as §1

[2] = Brain Tissue Binding, Mouse; type: in vitro ADME; conditions: read-out: Brain Tissue Binding % Bound (converted)
ABL1 = ABL1 (Homo sapiens, UniProt P00519); assay: Kinase inhibition, ABL1; type: biochemical
Text: as §1

LARK2 = LARK2 (Homo sapiens, UniProt Q5S007); assay: Kinase inhibition, LARK2; type: biochemical; further: ATP Km app 70 µM
Text: as §1

GRK6 = GRK6 (Homo sapiens, UniProt P43250); assay: Kinase inhibition, GRK6; type: biochemical; conditions: ATP Km app 11.7 μM
Text: as §1

[3] = Metabolic Stability, Mouse; type: in vitro ADME; conditions: for half-life: read-out: Metabolic Stability T1/2
GRK5 = GRK5 (Homo sapiens, UniProt P34947); assay: Kinase inhibition, GRK5; type: biochemical; conditions: ATP Km app 3 μM
Text: as §1

Solubility = type: physicochemical; conditions: simulated gastric fluid; pH 2.0
[4] = target: T1, tubulin purified from porcine brain (Sus scrofa, UniProt P02550+P02554); conditions: cited from earlier work
T1 construct: in vitro assembly of tubulin purified from porcine brain; from tissue; host or cells: porcine brain

CSNK1A1 (CK1 alpha 1) = CSNK1A1 (CK1 alpha 1) (Homo sapiens, UniProt P48729); assay: Kinase inhibition, CSNK1A1; type: biochemical
Text: as §1

FYN = FYN (Homo sapiens, UniProt P06241); assay: Kinase inhibition, FYN; type: biochemical
Text: as §1

[5] = Metabolic Stability, Human; type: in vitro ADME; conditions: for half-life: read-out: Metabolic Stability T1/2
[6] = Protein Binding, Human Plasma; type: in vitro ADME; conditions: read-out: Protein Binding % Bound (converted)
PLK2 = PLK2 (Homo sapiens, UniProt Q9NYY3); assay: Kinase inhibition, PLK2; type: biochemical; conditions: ATP Km app 29.6 μM
Text: as §1

in vivo = assay: in vivo; set-up: species or system male CD-1 mice; conditions: for clinical symptoms during pharmacokinetic work: mouse
Experimental: Briefly, each compound was administered through intravenous and oral routes, and plasma samplings were collected from 2 to 24 hours post-injection for analyses by high-performance liquid chromatography and mass spectrometry (Prominence (Degasser DGU-20A5R(C), Serial NO. L20705619752 IX; Liquid Chromatograph LC-30AD Serial NO. L20555611120 AE and L20555611116 AE; Communications Bus Module CBM-20A, Serial NO. L20235635001 CD, Auto SIL-20AC HT, Serial No. L20355305356 AE; Rack changer II, Serial No. L20585300757 SS; AB Sciex Triple Quan 5500 LC/MS/MS instrument (Serial NO. EF20711807)). A HALO 90A, C18 2.7 μm 2.1×50 mm USKL004340 column was used and the mobile phase was 5 or 95% acetonitrile in water with 0.1% formic acid (see Supplemental Material).

[7] = test system: βIII-tubulin+ structures in primary hippocampal neurons; assay: Nocodazole shock treatment followed by cold methanol fixation, βIII-tubulin staining; type: cell-based, rat; conditions: AG161-47 8 μM; nocodazole 50 nM and 5 μM
Experimental: For cold methanol fixation, primary hippocampal cultures plated on glass slides were exposed to ice-cold methanol (−20° C.) for 15 minutes on DIV 4. […] After immunostaining, coverslips were applied using FluoroMount-G (0100-01, SouthernBiotech).
The microtubule destabilizer/depolymerizer and kinase inhibitor nocodazole blocks AG161-47 activity: We qualitatively compared AG161-47 with the established microtubule destabilizer/depolymerizer nocodazole (Baas & Black, 1990; Baas et al., 2016; Bates & Eastman, 2017; Kapellos et al., 2016; Koenigsknecht & Landreth, 2004; Kuhn, 1998; Mandrekar et al., 2009; Nakayama et al., 2012; Park et al., 2012), using a nocodazole shock treatment followed by cold methanol fixation in primary hippocampal cultures, as previously described (Ferreira et al., 2018; Warren et al., 2020). Primary hippocampal cultures were treated with vehicle or AG161-47 at 8 μM or nocodazole at 50 nM and 5 μM.

[8] = test system: male CD-1 mice infused with preformed α-synuclein fibrils; assay: In vivo model of limbic-centered Lewy body disease (fibril infusion in OB/AON, daily tablets for six weeks); set-up: species or system mouse
[9] = test system: microtubules in HeLa cells; conditions: cited from earlier work
[10] = test system: primary hippocampal cultures; assay: Viability / toxicity in primary hippocampal cultures; type: cell-based
Text: Thresholds were kept uniform across individual experiments.

[11] = test system: α-tubulin (detyrosinated, tyrosinated, acetylated); assay: Post-translational markers of microtubule stability in primary hippocampal cultures (immunoblotting); type: cell-based, rat; conditions: 5 nM nocodazole, in the presence of fibrils

Chain of FYN (P06241 whole entry): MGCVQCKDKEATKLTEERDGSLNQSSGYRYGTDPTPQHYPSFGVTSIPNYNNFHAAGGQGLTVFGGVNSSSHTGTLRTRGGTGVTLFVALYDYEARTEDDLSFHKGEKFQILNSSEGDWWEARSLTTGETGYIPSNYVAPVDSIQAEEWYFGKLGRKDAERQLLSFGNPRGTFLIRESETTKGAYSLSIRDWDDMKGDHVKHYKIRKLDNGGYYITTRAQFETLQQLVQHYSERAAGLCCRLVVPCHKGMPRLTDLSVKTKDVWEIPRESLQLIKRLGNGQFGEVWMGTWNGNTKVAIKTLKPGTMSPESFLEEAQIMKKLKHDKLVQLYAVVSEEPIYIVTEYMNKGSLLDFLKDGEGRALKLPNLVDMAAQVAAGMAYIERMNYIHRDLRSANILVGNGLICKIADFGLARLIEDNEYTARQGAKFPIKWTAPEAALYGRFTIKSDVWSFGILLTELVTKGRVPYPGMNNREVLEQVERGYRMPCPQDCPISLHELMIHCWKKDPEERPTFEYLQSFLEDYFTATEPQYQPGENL
Chain of CSNK1A1 (CK1 alpha 1) (P48729 whole entry): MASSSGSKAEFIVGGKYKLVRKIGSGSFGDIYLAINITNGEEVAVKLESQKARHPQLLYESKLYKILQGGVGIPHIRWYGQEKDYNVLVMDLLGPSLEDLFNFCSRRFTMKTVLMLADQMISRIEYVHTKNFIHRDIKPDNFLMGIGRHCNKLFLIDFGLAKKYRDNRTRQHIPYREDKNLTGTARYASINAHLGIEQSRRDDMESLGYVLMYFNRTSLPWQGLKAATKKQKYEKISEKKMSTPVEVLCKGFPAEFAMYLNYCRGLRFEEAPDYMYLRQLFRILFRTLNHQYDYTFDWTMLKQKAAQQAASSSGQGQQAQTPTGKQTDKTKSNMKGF
Chain of ABL1 (P00519 whole entry): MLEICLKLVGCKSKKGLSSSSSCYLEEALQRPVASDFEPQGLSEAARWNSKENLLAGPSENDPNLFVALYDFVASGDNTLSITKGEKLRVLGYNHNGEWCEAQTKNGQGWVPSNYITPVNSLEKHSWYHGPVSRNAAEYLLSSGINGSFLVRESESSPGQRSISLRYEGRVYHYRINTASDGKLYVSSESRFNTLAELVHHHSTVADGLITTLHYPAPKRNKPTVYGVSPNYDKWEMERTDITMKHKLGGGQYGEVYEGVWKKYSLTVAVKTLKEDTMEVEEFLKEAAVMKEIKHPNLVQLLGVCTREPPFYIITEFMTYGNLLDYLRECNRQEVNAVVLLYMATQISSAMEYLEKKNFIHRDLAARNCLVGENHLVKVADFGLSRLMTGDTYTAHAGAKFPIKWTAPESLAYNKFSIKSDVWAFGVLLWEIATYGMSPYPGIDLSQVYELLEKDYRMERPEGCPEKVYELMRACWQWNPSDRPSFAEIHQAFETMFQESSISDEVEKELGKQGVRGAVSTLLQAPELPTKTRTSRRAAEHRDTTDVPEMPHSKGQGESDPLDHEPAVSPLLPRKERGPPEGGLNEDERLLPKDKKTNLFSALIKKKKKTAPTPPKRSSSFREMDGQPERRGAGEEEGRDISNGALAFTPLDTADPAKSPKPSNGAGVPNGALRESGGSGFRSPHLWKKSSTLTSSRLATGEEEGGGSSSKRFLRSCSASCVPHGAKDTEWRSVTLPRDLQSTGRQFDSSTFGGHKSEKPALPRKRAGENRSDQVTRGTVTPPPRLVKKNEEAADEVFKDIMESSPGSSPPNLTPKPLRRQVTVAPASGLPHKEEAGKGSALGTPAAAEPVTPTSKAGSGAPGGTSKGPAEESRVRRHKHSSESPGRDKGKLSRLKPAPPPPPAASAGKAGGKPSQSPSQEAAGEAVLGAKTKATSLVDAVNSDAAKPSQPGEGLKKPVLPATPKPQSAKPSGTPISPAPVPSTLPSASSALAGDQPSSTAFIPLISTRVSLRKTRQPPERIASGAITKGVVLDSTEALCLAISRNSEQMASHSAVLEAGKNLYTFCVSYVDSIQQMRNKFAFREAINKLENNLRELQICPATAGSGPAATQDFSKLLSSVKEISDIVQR
Chain of PLK2 (Q9NYY3 whole entry): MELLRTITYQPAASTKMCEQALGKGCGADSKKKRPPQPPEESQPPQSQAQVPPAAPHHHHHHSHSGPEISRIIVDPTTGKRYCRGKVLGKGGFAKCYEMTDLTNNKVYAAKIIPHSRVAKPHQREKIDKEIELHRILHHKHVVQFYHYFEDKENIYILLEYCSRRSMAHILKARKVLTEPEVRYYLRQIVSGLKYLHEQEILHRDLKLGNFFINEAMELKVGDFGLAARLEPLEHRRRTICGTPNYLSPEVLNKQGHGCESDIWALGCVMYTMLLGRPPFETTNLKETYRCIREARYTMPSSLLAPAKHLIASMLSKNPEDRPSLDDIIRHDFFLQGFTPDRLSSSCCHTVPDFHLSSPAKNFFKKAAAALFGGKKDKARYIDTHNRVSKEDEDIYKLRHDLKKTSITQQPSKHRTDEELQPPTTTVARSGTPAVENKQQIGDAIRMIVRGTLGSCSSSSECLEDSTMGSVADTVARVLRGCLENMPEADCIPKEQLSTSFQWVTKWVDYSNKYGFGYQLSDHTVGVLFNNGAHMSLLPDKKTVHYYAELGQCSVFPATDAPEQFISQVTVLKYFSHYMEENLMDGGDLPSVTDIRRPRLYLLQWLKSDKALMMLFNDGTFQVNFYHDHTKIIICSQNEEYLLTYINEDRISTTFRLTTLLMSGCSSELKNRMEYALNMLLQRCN
T1 sequence (P02550 whole entry): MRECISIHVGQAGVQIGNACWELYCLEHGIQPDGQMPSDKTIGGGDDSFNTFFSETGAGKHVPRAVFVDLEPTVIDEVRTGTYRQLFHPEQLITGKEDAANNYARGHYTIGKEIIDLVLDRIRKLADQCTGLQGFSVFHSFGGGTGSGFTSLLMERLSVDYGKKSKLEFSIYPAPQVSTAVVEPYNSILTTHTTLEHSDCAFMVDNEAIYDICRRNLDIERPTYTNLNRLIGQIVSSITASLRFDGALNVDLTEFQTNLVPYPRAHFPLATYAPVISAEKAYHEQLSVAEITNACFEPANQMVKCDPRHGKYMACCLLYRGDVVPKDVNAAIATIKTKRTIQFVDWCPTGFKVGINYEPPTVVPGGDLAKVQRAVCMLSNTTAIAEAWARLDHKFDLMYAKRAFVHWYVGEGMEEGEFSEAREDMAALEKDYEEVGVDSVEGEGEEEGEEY
T1 sequence (P02554 whole entry): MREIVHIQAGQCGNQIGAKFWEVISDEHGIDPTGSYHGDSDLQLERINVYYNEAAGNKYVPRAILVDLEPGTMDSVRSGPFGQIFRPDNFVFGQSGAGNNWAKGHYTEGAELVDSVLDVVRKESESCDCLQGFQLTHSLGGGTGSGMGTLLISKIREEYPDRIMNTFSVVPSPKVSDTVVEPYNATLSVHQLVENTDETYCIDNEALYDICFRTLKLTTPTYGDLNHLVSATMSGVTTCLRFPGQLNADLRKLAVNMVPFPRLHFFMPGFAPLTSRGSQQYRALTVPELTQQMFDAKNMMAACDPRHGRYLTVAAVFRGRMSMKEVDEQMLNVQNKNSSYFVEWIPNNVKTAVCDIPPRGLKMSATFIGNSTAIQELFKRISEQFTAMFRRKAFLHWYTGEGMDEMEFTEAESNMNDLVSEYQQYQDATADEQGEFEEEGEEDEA
Chain of GSK3β (P49841 whole entry): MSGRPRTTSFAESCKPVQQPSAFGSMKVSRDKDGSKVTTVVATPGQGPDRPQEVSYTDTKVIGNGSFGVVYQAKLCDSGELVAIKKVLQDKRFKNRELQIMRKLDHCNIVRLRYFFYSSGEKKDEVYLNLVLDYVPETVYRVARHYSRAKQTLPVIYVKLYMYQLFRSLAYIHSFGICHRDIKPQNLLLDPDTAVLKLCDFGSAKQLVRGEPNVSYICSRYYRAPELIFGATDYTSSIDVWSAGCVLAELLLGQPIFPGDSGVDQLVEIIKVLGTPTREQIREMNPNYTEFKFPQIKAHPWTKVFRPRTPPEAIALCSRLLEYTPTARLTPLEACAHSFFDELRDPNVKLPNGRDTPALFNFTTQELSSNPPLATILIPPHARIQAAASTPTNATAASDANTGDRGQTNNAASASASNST
Chain of GRK5 (P34947 whole entry): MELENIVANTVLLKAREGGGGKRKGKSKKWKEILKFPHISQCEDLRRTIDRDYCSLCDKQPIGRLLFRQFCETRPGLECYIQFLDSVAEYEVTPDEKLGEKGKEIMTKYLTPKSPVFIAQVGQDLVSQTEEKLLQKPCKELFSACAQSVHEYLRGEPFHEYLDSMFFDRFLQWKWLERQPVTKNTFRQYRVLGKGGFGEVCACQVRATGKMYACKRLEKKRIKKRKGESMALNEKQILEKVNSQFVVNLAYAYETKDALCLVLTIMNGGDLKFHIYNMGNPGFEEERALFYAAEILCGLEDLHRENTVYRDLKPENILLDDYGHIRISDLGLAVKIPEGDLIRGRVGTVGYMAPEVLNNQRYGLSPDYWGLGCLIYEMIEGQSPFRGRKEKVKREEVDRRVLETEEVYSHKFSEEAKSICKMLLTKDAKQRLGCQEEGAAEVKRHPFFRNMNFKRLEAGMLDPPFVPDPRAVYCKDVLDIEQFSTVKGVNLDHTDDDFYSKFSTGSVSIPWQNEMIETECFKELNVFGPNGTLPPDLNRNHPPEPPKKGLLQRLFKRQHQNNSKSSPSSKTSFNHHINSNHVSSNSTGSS
Chain of CSNK2A2 (CK2 alpha 2) (P19784 whole entry): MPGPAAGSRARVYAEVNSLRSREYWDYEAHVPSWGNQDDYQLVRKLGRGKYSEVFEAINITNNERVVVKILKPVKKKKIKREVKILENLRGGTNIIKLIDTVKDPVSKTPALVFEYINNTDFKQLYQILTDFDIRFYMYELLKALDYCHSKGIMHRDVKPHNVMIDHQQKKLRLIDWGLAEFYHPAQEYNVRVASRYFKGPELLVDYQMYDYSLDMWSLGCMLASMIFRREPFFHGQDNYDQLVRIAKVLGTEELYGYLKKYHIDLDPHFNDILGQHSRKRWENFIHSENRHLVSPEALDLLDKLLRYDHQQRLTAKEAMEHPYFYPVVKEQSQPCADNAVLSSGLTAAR

Compound: Cc1ccc(N(C)c2nc(N)nc3[nH]c4cccc(Cl)c4c23)cc1 [AGN5]
- fraction unbound [1]: < 0.0002
- IC50 (CSNK2A2 (CK2 alpha 2)): > 1110 nM
- IC50 (DYRK1A): 249 nM
- Papp A→B (Permeability, MDC-MDR1): 1.74 ×10⁻⁶ cm/s
- Papp B→A (Permeability, MDC-MDR1): 2.98 ×10⁻⁶ cm/s
- IC50 (GSK3β): 3.12 nM
- fraction unbound [2]: 0.0004
- IC50 (ABL1; ATP Km app 12 μM): 26.1 nM
- IC50 (LARK2): 20 nM
- IC50 (GRK6): 64.3 nM
- CLint scaled [3]: 602 mL/min/kg
- half-life [3]: 10.1 min
- IC50 (GRK5): > 370 nM
- solubility (Solubility): 1.75 µM (≈ 0.591 µg/mL)
- in vitro assembly of porcine brain tubulin [4]: accelerate the temporal kinetics of porcine brain tubulin in vitro assembly
- IC50 (CSNK1A1 (CK1 alpha 1)): 498 nM
- IC50 (FYN; ATP Km app 85 μM): 169 nM
- CLint scaled [5]: 44.7 mL/min/kg
- half-life [5]: 38.9 min
- fraction unbound [6]: 0.0022
- IC50 (PLK2): 16.7 nM
- Kp (in vivo; male, CD-1, mouse): 5.99
- Kp uu at 2 h (in vivo; male, CD-1, mouse): 6
- C0 (in vivo; male, CD-1, mouse, iv, 1 mg/kg): 811 ng/mL
- CIobs (in vivo; male, CD-1, mouse, iv, 1 mg/kg): 49.5 mL/min/kg
- Vss_obs (in vivo; male, CD-1, mouse, iv, 1 mg/kg): 3.24 L/kg
- half-life (in vivo; male, CD-1, mouse, iv, 1 mg/kg): 93 min
- AUC(0-t) (in vivo; male, CD-1, mouse, po, 1 mg/kg): 19.2 ng·h/mL
- Cmax (in vivo; male, CD-1, mouse, po, 1 mg/kg): 14.7 ng/mL and 44 nM
- F (in vivo; male, CD-1, mouse, po, 1 mg/kg): 6.35%
- Tmax (in vivo; male, CD-1, mouse, po, 1 mg/kg): 30 min
- half-life (in vivo; male, CD-1, mouse, po, 1 mg/kg): 46.8 min
- clinical symptoms during pharmacokinetic work (in vivo): no abnormal clinical symptoms were observed

Compound: CN(c1ccccc1)c1nc(N)nc2[nH]c3cccc(Cl)c3c12 [AGN11]
- fraction unbound [1]: 0.0022
- IC50 (CSNK2A2 (CK2 alpha 2)): > 1110 nM
- IC50 (DYRK1A): 8.15 nM
- Papp A→B (Permeability, MDC-MDR1): 4.97 ×10⁻⁶ cm/s
- Papp B→A (Permeability, MDC-MDR1): 4.16 ×10⁻⁶ cm/s
- appearance of βIII-tubulin+ structures after cold methanol fixation [7]: did not alter the appearance of βIII-tubulin^+ structures
- IC50 (GSK3β): 8.12 nM
- fraction unbound [2]: 0.0008
- correlation between insoluble α-synuclein and locomotor speed ([8]; 5 mg/kg): uncoupled the inverse correlation between insoluble α-synuclein and locomotor speed
- hyperphosphorylation (pSer129) of insoluble α-synuclein, piriform cortex and amygdala ([8]; 5 mg/kg, six weeks, listed as AG161-47): modestly lowered; also recorded: reduced the hyperphosphorylation of insoluble α-synuclein
- effect on Lewy-related pathology ([8]; 10 mg/kg, six weeks): too high to exert beneficial effects
- bodyweight ([8]; daily tablets 5 or 10 mg/kg, six weeks, compared to placebo): No loss of bodyweight
- acetylated, detyrosinated, or tyrosinated α-tubulin levels in whole-fraction OB/AON ([8]; immunoblotting, six weeks): virtually no net effect
- α-synucleinopathic inclusion counts ([8]; piriform cortex sections, six weeks): does not affect α-synucleinopathic inclusion counts
- locomotor activity in an open arena ([8]; six weeks after fibril infusions): reduced locomotor activity
- other behavior measures (novel odor habituation, Y-maze, marble burying) ([8]; six weeks of daily tablets): no impact
- microtubule effects in HeLa cells [9]: elicited both stabilization and relaxation of microtubules
- IC50 (ABL1; ATP Km app 12 μM): 7.96 nM
- IC50 (LARK2): 7.03 nM
- IC50 (GRK6): 614 nM
- CLint scaled [3]: 602 mL/min/kg
- half-life [3]: 10.1 min
- fragmented and condensed Hoechst+ nuclei ([10]; 8 μM, fibril-treated group): reduced fragmented and condensed Hoechst^+ nuclei
- impact on fragmented/condensed cell counts with nocodazole co-treatment ([10]; fibril groups, nocodazole 1 and 5 nM): prevented by both concentrations of nocodazole
- IC50 (GRK5): > 1110 nM
- solubility (Solubility): 0.71 µM (≈ 0.23 µg/mL)
- in vitro assembly of porcine brain tubulin [4]: accelerated and amplified the net in vitro assembly of tubulin
- IC50 (CSNK1A1 (CK1 alpha 1)): 30.5 nM
- IC50 (FYN; ATP Km app 85 μM): 888 nM
- CLint scaled [5]: 45.6 mL/min/kg
- half-life [5]: 38.1 min
- fraction unbound [6]: 0.004
- IC50 (PLK2): > 370 nM
- Kp (in vivo; male, CD-1, mouse): 4.5
- Kp uu at 2 h (in vivo; male, CD-1, mouse): 4.4
- C0 (in vivo; male, CD-1, mouse, iv, 1 mg/kg): 529 ng/mL
- CIobs (in vivo; male, CD-1, mouse, iv, 1 mg/kg): 120 mL/min/kg
- Vss_obs (in vivo; male, CD-1, mouse, iv, 1 mg/kg): 2.41 L/kg
- half-life (in vivo; male, CD-1, mouse, iv, 1 mg/kg): 19.4 min
- AUC(0-t) (in vivo; male, CD-1, mouse, po, 1 mg/kg): 11 ng·h/mL
- F (in vivo; male, CD-1, mouse, po, 1 mg/kg): 8.38%
- Tmax (in vivo; male, CD-1, mouse, po, 1 mg/kg): 25 min
- half-life (in vivo; male, CD-1, mouse, po, 1 mg/kg): 36 min
- clinical symptoms during pharmacokinetic work (in vivo): no abnormal clinical symptoms were observed

Compound: Brc1c(Br)c(Br)c2n[nH]nc2c1Br [TBB, reference compound]
- IC50 (CSNK1A1 (CK1 alpha 1); representative value, ATP bin 5 μM, read-out: IC50 (nM) of Std inhibitor, CSNK1A1 (CK1 alpha 1)): 12600 nM

Compound: COc1cc2ncnc(Nc3cccc(Cl)c3)c2cc1OC [Tyrphostin AG1478, reference compound]
- IC50 (ABL1; representative value, ATP bin 10 μM, read-out: IC50 (nM) of Std inhibitor, ABL1): 326 nM
- IC50 (FYN; representative value, ATP bin 75 μM, read-out: IC50 (nM) of Std inhibitor, FYN): 5300 nM

Compound: COC(=O)Nc1nc2ccc(C(=O)c3cccs3)cc2[nH]1 [nocodazole]
- appearance of βIII-tubulin+ structures after cold methanol fixation [7]: neurotoxicity and severe beading of axonal microtubules
- number of viable Hoechst+ cells ([10]; fibrils, escalating AG161-47 up to 8 μM, nocodazole 1 and 5 nM, 10 days): no statistically significant changes
- toxicity to primary hippocampal cultures [10]: also found to be toxic
- acetylated (stable) α-tubulin levels [11]: raised the levels of acetylated (stable) α-tubulin

Compound: epothilone
- toxicity to primary hippocampal cultures [10]: toxic to primary hippocampal cultures at nanomolar concentrations; also recorded: also found to be toxic
